How the values were obtained:
[1] = biological target: IDH1-R132 homodimer enzyme (R132H) (Homo sapiens (Human), UniProt O75874, R132H); assay: In vitro assay IDH1-R132H homodimer, NADPH depletion assay; format: biochemical
Method: (§1) The following describes the experimental procedures that can be used to obtain data on columns 3 and 6 of Table 4.
(§2) A test compound is prepared as 10 mM stock in DMSO and diluted to 50× final concentration in DMSO, for a 50 μl reaction mixture. IDH enzyme activity converting alpha-ketoglutarate to 2-hydroxyglutaric acid is measured using a NADPH depletion assay. In the assay the remaining cofactor is measured at the end of the reaction with the addition of a catalytic excess of diaphorase and resazurin, to generate a fluorescent signal in proportion to the amount of NADPH remaining. […] The reaction is started with the addition of 10 μl of Substrate Mix ([…], 5 mM alpha-ketoglutarate, in Assay Buffer) and the mixture is incubated for 90 minutes at room temperature.

IDH1 R132C = IDH1 R132C (Homo sapiens (Human), UniProt O75874, R132C); assay: In vitro assay IDH1 R132C homodimer, NADPH depletion assay; format: biochemical
Method: as §1, §2
The concentration of NADPH and alpha-ketoglutarate in the Substrate Buffer is 20 μM and 1 mM, respectively.

IDH2 R140Q [2] = biological target: T1, IDH2 R140Q (Homo sapiens (Human), UniProt P48735, R140Q); assay: In vitro assay for IDH2m R140Q inhibitors, cofactor depletion assay; format: biochemical; settings: IDH2 R140Q enzyme
Method in brief: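 Remaining cofactor measured fluorimetrically: diaphorase/resazurin Stop Mix […], halting the reaction. Before that, mutant enzyme and compound sat 1 h at RT, then substrate mix (4 μM NADPH, 1.6 mM α-KG) was added for 16 h at RT.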

HT1080 cells = assay: Cellular assay for IDH1m R132C inhibitors, 2-HG by LC-MS in HT1080 cells; format: cell-based; settings: Homo sapiens, HT-1080
Method in brief: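 HT1080 cells at 5000 cells/well were treated with compound (0.2% DMSO final). After 48 h, 2-HG in the medium was measured by LC-MS. Viability was read by CellTiter-Glo luminescence at 72 h.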

[3] = biological target: IDH1 wt/IDH1 R132H heterodimer (Homo sapiens (Human), UniProt O75874, R132H); assay: In vitro assay for IDH1m R132H inhibitors, IDH1 wt/IDH1 R132H heterodimer, NADPH depletion (diaphorase/resazurin); format: biochemical; settings: IDH1 wt/R132H heterodimer, NADPH/NADP, not saturated; read-out: IDH1 wt/R132H NADPH/NADP IC50 not saturated
Method in brief: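 Purified IDH1wt-his/IDH1R132H-flag heterodimer (sf9 co-expression) pre-incubated 1 hr at room temperature with compound and NADPH before α-KG addition. Remaining NADPH read by diaphorase/resazurin conversion to fluorescent resorufin, 5 min at 25° C. Compounds diluted 1:50 from DMSO; IC50 determined.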

[4] = biological target: IDH1-R132H homodimer enzyme (Homo sapiens (Human), UniProt O75874, R132H); assay: In vitro assay IDH1-R132H homodimer, NADPH depletion assay with NADPH/NADP preincubation; format: biochemical; settings: 5 μM NADPH and 37.5 μM NADP
Method in brief: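 Conversion of alpha-ketoglutarate to 2-hydroxyglutarate tracked by NADPH depletion. Reaction started with 5 mM alpha-ketoglutarate plus NADPH substrate mix (50 μl total), 60 min at room temperature. Leftover NADPH quantified via diaphorase/resazurin fluorescence.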

IDH2 R140Q [5] = biological target: T1, IDH2 R140Q; assay: In vitro assay for IDH2m R140Q inhibitors, cofactor depletion assay, 16 hr preincubation with NADPH/NADP; format: biochemical; settings: read-out: IDH2 R140Q 16 hr NADPH/NADP IC50; 16 hrs preincubation with enzyme, 5 uM NADPH and 750 uM NADP
From the text: The following describes the experimental procedures used to obtain data on column 6 of Table 5.
The reaction is terminated by the addition of a second enzyme, diaphorase, and a corresponding substrate, resazurin. Diaphorase reduces resazurin to the highly fluorescent resorufin with the concomitant oxidation of NADPH to NADP, both halting the IDH2 reaction by depleting the available cofactor pool and facilitating quantitation of the amount of cofactor remaining after a specific time period through quantitative production of an easily detected fluorophore.
The test compound is then incubated for 16 hrs at room temperature with the enzyme and cofactors before starting the IDH2 reaction with the addition of 10 μl of substrate mix containing 8 mM α-KG (final concentration 1.6 mM) in the buffer described above. After a further 1 hour of incubation at room temperature, the reaction is halted and the remaining NADPH measured through conversion of resazurin to resorufin by the addition of 25 μl Stop Mix (36 μg/ml diaphorase enzyme and 60 μM resazurin; in buffer).

[6] = system: U87MG pLVX-IDH2 R140Q-neo cells; assay: U87MG pLVX-IDH2 R140Q-neo cell based assay, 2-HG by LC-MS; settings: Homo sapiens, U-87 MG

Chain of IDH1-R132 homodimer enzyme (R132H) (O75874 whole entry R132H): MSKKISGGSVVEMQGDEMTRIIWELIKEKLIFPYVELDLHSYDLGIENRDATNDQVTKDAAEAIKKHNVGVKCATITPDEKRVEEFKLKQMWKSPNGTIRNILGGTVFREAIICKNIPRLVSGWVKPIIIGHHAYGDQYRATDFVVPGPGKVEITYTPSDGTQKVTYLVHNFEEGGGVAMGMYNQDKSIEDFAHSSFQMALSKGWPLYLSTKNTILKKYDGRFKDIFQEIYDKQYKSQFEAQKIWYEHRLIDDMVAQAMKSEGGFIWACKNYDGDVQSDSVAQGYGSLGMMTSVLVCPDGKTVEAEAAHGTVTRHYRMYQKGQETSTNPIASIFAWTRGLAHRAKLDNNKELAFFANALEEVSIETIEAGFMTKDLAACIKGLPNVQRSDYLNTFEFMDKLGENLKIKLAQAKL
Chain of IDH1 wt/IDH1 R132H heterodimer (O75874 whole entry R132H): as above
Chain of IDH1 wt/IDH1 R132H heterodimer (O75874 whole entry, stated change not applied): as the sequence (O75874 whole entry R132H) above, with H132R counted along it
Chain of IDH1 R132C (O75874 whole entry R132C): as the sequence (O75874 whole entry R132H) above, with H132C counted along it
T1 sequence (P48735 40-452 R140Q): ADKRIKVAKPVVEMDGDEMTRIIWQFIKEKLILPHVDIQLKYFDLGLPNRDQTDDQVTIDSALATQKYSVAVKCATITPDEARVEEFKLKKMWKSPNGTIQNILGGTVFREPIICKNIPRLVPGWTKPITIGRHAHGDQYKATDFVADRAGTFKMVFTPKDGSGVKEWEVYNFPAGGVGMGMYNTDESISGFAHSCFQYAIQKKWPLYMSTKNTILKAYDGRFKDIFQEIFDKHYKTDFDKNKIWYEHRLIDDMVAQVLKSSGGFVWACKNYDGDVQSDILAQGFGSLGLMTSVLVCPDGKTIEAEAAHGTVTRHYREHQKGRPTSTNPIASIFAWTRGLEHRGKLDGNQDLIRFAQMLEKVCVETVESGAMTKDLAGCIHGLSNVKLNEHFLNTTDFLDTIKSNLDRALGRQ
Chain of IDH1-R132H homodimer enzyme (O75874 whole entry R132H): as the sequence (O75874 whole entry R132H) above

IC50 [1] [µM]	IC50 (IDH1 R132C) [µM]	IC50 (IDH2 R140Q [2]) [µM]	IC50 (HT1080 cells) [µM]	IC50 [3] [µM]	IC50 [4] [µM]	IC50 (IDH2 R140Q [5]) [µM]	IC50 [6] [µM]	SMILES
0.05 to 0.1	0.05 to 0.1	< 0.05	0.05 to 0.1					CC(C)(C)Nc1nc(NC(C)(C)C)nc(-c2cccc(C(F)(F)F)n2)n1 [Compound 4]
				< 0.05	0.1 to 1	0.1 to 1		C[C@@H](Nc1nc(NC2C3CC4CC(C3)CC2C4)nc(-c2cccc(C(F)(F)F)n2)n1)C1CC1 (some centres unmarked) [Compound 234]
< 0.05	< 0.05	< 0.05	< 0.05				< 0.05	C[C@@H](Nc1nc(N[C@H](C)C2CC2)nc(-c2cccc(C(F)(F)F)n2)n1)C1CC1 [Compound 2]
< 0.05	< 0.05	< 0.05	< 0.05					FC1(F)CCC(Nc2nc(NC3CCC(F)(F)C3)nc(-c3cccc(C(F)(F)F)n3)n2)C1 (centres unmarked) [Compound 31]
< 0.05	0.05 to 0.1		< 0.05					C[C@H](Nc1nc(N[C@H](C)C2CC2)nc(-c2cccc(C(F)(F)F)n2)n1)C1CC1 [Compound 34]
0.1 to 1	0.05 to 0.1	< 0.05	0.05 to 0.1					C[C@@H](Nc1nc(N[C@H](C)C2CC2)nc(-c2cccc(O)c2)n1)C1CC1 [Compound 11]
0.05 to 0.1	0.05 to 0.1		0.05 to 0.1	< 0.05				CC(Nc1nc(N[C@H](C)C2CC2)nc(-c2cccc(C(F)(F)F)n2)n1)c1cccc(F)c1 (some centres unmarked) [Compound 28]
0.05 to 0.1	0.05 to 0.1		0.05 to 0.1					C[C@@H](Nc1nc(N[C@H](C)C2CCC2)nc(-c2cccc(C(F)(F)F)n2)n1)C1CCC1 [Compound 19]
< 0.05	0.05 to 0.1		0.05 to 0.1					CCCC(C)Nc1nc(N[C@H](C)C2CC2)nc(-c2cccc(C(F)(F)F)n2)n1 (some centres unmarked) [Compound 39]
< 0.05	0.05 to 0.1		< 0.05					C[C@H](Nc1nc(N[C@@H](C)C2CC2)nc(-c2cccc(C(F)(F)F)n2)n1)C1CC1 [Compound 33]
				0.05 to 0.1		< 0.05		C[C@@H](Nc1cc(NC2CCC(F)(F)CC2)nc(-c2cccc(Cl)n2)n1)C(F)(F)F [Compound 418]
0.05 to 0.1	0.05 to 0.1		< 0.05					CC(C)[C@H](C)Nc1nc(N[C@@H](C)C(C)C)nc(-c2cccc(C(F)(F)F)n2)n1 [Compound 17]
